From the NIST ThermoML archive (doi:10.1021/je500422t) come the findings set out here.

For series [1] the following is noted: Liquid; for mass density: 298.2 K, 101.33 kPa, Vibrating tube method; for Normal boiling temperature: Distillation.
The nature of series [2]: refractive index (Na D-line) (dimensionless). The settings on record: 298.2 K; 101.33 kPa; Liquid; Standard Abbe refractometry.

Numbers after ± are expanded uncertainties.

As usually defined, the mass density is the mass of a sample divided by its volume. Usually refractive index stands for the speed of light in vacuum divided by its phase velocity in the sample. With `O=CO` [formic acid], in series [1], the mass density amounted to 1220.04 ± 1.1 kg/m3 and the Normal boiling temperature came out at 101.2 ± 1.1 °C. Besides, the refractive index in series [2] amounted to 1.37144 ± 0.00039.

Regarding `COC(=O)OC` [dimethyl carbonate], in series [1], the mass density amounted to 1061.9 ± 1 kg/m3 and the Normal boiling temperature came to 90.08 ± 1.1 °C. Moreover, the refractive index in series [2] was 1.3685 ± 0.0004.
